The values that follow come from patent US20210283261A1, “Compositions and Methods for Treating ALK-Mediated Cancer” (ICAHN SCHOOL OF MEDICINE AT MOUNT SINAI, priority 2017, published 2021).

Common to all, as to type: cell-based
One experiment relates to ALK. As to the kind of experiment: Characterization of ALK degraders in ALCL and NSCLC cells (summary). To be noted: summary statement. An excerpt: Specific exemplary ALK degraders/disruptors were characterized in various different anaplastic large cell lymphoma (ALCL) cells and non-small cell lung cancer (NSCLC) cells (Examples 4-19, FIGS. 1-18). […] This efficacy in suppressing ALK expression and ALK activity correlated with efficacy in inhibiting cancer cell proliferation.

The test system of a further experiment is SU-DHL-1 cells. As to the kind of experiment: Cell viability assay in SU-DHL-1 cells. Particulars: 3 days. Here is the method: SU-DHL-1 cells were seeded in 96-well plates at a density of 1×10^4 cells per well, in triplicate. Treated cells with DMSO or indicated serial dilutions of compounds for 2.5 days. Cell growth/survival was measured by using the CellTiter-Glo luminescent cell viability assay following the manufacturer's instructions (Promega) or CCK8 cell viability assay (Sigma). Data was analyzed by using the GraphPad Prism software, Error bars represent ±SD for triplicate experiments.
SU-DHL-1 cells were seeded in 96-well plates at a density of 1×10^4 cells per well, in triplicate. Treated cells with DMSO or indicated serial dilutions of compounds for 2.5 days. Cell growth/survival was measured by using the CellTiter-Glo luminescent cell viability assay. Data was analyzed by using the GraphPad Prism software, Error bars represent ±SD for triplicate experiments (left panel).
SU-DHL-1 cells were seeded in 96-well plates at a density of 5000 cells per well, in triplicate. The cells were treated with DMSO or indicated serial dilutions of compounds for 3 days. Cell growth was measured using the CellTiter-Glo luminescent cell viability assay. Data were analyzed using the GraphPad Prism.
(§1) SU-DHL-1 and NCI-3122 cells were treated with DMSO or indicated serial dilutions of compounds for 3 days. Data were analyzed using the GraphPad Prism.

The target of another experiment is T1, NPM-ALK fusion protein (Homo sapiens, UniProt Q9UM73).
T1 construct: endogenous in cells; host or cells: SU-DHL-1; the other entry of the earlier key: NPM1 (P06748, Nucleophosmin)
As to the kind of experiment: Western blot of NPM-ALK fusion protein levels in SU-DHL-1 cells. Particulars: for effect on ALK fusion protein levels, concentration dependence: SU-DHL-1 cells, 0, 10, 20, 40, 80 and 160 nM; for effect on ALK fusion protein levels, concentration dependence / significantly reduced ALK fusion protein levels (degraders vs negative controls): 16 h; for rescue of induced ALK fusion protein degradation by MG-132 and MLN4924 / significantly reduced ALK fusion protein levels (degraders vs negative controls): SU-DHL-1 cells; for rescue of induced ALK fusion protein degradation by MG-132 and MLN4924: 2 h pre-treatment, then 100 nM compound for 6 h. Here is the method: Cells were cultured in a 37° C. incubator with 5% CO2.
Cells were washed with cold PBS once and lysed in 1× Laemmli loading buffer directly. […] Membrane was blocked in 5% milk in Tris-buffered saline and Tween 20 (TBST) for 1 h at room temperature, followed by incubation with a primary antibody overnight at 4° C., and a horseradish peroxidase (HRP)-conjugated secondary antibody for 1 h at room temperature. The membrane was imaged by a ChemiDoc MP imaging system (BIO-RAD). Antibodies against GAPDH (abeam), Phospho-ALK (Tyr1507), ALK (Cell Signaling Technology), Tubulin (Santa Cruz) were purchased commercially.
SU-DHL-1 suspension cells were seeded in 12-well plates at a density of 6×10^5/mL and treated with DMSO or indicated compounds at 30 nM or 100 nM for indicated time.
SU-DHL-1 cells were seeded in 12-well plates at a density of 4×10^5/mL and treated with DMSO or indicated serial dilutions of compounds for 16 h. The NPM-ALK fusion protein levels were determined by Western blot and normalized against GPADH (right panel).
Background: In western blotting, separated proteins are transferred to a membrane and probed.

Another experiment addresses T2, ALK fusion protein (Homo sapiens, UniProt Q9UM73).
T2 construct: endogenous in cells; host or cells: NCI-H3122; the other entry of the earlier key: EML4 (Q9HC35, Echinoderm microtubule-associated protein-like 4)
Put plainly: Western blot of ALK fusion protein levels in NCI-H3122 cells. Particulars: for Dmax at 0.5 µM: NCI-H3122, NCI-H3122 cells, read-out: ALK fusion protein degradation, NCI-H3122 (500 nM); for effect on ALK fusion protein levels, concentration dependence: NCI-H3122 cells, 0, 50, 100, 200, 400 and 800 nM; for effect on ALK fusion protein levels, concentration dependence / significantly reduced ALK fusion protein levels (degraders vs negative controls): 16 h.

Another experiment deals with NCI-H3122 cells. As to the kind of experiment: Cell viability assay in NCI-H3122 cells. To be noted: 3 days. As to the method:
SU-DHL-1, NCI-H3122 and NCI-H2228 cells were cultured in RPMI-1640 medium supplemented with 10% fetal bovine serum, 50 μg/mL penicillin and streptomycin. Cells were cultured in a 37° C. incubator with 5% CO2.
as §1

Some results are limits rather than exact numbers.

T2 sequence (Q9UM73 with tags, fused parts or gaps): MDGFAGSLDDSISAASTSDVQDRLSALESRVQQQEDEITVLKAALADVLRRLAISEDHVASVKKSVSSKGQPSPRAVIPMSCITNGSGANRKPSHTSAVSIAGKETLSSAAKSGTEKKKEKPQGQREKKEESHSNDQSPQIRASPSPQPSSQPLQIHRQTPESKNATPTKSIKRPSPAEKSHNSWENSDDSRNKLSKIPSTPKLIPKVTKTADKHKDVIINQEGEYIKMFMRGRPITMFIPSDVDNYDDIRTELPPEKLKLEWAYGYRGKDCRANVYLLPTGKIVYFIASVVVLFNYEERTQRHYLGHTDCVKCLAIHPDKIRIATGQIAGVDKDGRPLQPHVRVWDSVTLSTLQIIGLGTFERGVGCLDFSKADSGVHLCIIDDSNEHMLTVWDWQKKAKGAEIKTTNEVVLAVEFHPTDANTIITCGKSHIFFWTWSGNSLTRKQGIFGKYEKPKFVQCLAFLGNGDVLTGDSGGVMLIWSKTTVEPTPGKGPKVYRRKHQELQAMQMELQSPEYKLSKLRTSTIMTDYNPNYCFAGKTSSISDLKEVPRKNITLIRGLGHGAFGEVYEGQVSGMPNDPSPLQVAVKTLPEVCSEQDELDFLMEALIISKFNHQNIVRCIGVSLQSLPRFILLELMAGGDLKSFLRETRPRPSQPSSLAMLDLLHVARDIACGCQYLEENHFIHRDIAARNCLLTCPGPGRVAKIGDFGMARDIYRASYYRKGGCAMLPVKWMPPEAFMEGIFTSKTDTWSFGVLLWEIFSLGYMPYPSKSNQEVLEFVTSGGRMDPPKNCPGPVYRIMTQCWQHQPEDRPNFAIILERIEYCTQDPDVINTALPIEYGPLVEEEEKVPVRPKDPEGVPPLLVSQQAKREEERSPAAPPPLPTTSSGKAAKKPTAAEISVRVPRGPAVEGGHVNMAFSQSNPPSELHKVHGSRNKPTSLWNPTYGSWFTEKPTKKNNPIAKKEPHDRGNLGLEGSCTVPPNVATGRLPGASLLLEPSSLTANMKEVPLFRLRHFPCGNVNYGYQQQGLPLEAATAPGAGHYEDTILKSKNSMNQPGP
T1 sequence (Q9UM73 with tags, fused parts or gaps): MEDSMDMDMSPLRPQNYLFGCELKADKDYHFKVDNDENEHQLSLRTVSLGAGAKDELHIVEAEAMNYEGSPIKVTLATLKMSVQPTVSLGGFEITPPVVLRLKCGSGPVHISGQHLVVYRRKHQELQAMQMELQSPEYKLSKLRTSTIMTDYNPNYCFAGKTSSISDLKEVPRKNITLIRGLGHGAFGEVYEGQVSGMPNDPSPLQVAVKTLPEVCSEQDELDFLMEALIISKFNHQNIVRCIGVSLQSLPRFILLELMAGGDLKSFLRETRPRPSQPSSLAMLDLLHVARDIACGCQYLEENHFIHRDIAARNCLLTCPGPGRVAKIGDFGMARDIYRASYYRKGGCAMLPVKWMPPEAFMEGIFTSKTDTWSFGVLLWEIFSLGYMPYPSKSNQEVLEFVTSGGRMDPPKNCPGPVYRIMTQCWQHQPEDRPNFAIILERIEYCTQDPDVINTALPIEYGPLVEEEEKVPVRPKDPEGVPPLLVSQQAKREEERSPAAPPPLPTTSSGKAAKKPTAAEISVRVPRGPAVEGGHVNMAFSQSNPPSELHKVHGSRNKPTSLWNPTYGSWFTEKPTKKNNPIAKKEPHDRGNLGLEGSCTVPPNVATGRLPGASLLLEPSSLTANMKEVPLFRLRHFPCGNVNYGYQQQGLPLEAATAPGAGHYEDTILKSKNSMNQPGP

With `Cc1cc(Nc2ncc(Cl)c(Nc3ccccc3S(=O)(=O)C(C)C)n2)c(OC(C)C)cc1C1CCN(C(=O)CCCC(=O)N[C@H](C(=O)N2C[C@H](O)C[C@H]2C(=O)N[C@@H](C)c2ccc(-c3scnc3C)cc2)C(C)(C)C)CC1` [HC58-99, (2S,4R)-1-((S)-2-(5-(4-(4-((5-Chloro-4-((2-(isopropylsulfonyl)phenyl)amino)pyrimidin-2-yl)amino)-5-isopropoxy-2-methylphenyl)piperidin-1-yl)-5-oxopentanamido)-3,3-dimethylbutanoyl)-4-hydroxy-N—((S)-1-(4-(4-methylthiazol-5-yl)phenyl)ethyl)pyrrolidine-2-carboxamide], in the experiment with ALK, the “suppressing both ALK expression and ALK activity” value is listed as “especially effective”. In addition, the “inhibition of cell viability” value in the experiment with SU-DHL-1 cells and with NCI-H3122 cells was “significantly inhibited” each time. The “effect on ALK fusion protein levels, concentration dependence” value (“effect on ALK fusion protein levels” for short) on NPM-ALK fusion protein and on ALK fusion protein was “concentration-dependently reduced” in each case. Further, the Dmax at 0.5 µM at ALK fusion protein (500 nM, Western blot) was > 80%.
For the molecule `Cc1cc(Nc2ncc(Cl)c(Nc3ccccc3S(=O)(=O)C(C)C)n2)c(OC(C)C)cc1C1CCN(C(=O)CCCC(=O)N[C@H](C(=O)N2C[C@H](O)C[C@H]2C(=O)NCc2ccc(-c3scnc3C)cc2)C(C)(C)C)CC1` [CZ47-23, (2S,4R)-1-((S)-2-(5-(4-(4-((5-Chloro-4-((2-(isopropylsulfonyl)phenyl)amino)pyrimidin-2-yl)amino)-5-isopropoxy-2-methylphenyl)piperidin-1-yl)-5-oxopentanamido)-3,3-dimethylbutanoyl)-4-hydroxy-N-(4-(4-methylthiazol-5-yl)benzyl)pyrrolidine-2-carboxamide], in the experiment with ALK, the “suppressing both ALK expression and ALK activity” value is recorded as “especially effective”. The “inhibition of cell viability” value in the experiment on SU-DHL-1 cells and in the experiment with NCI-H3122 cells was “significantly inhibited” throughout. Further, the “effect on ALK fusion protein levels” value at NPM-ALK fusion protein and at ALK fusion protein was “concentration-dependently reduced” throughout. Also, the “rescue of induced ALK fusion protein degradation by MG-132 and MLN4924” value (shortened to “rescue”) on NPM-ALK fusion protein is given as “significantly rescued”. Moreover, the “significantly reduced ALK fusion protein levels (degraders vs negative controls)” value on NPM-ALK fusion protein and on ALK fusion protein (NCI-H3122 cells) was “significantly reduced” throughout. The Dmax at 0.5 µM on ALK fusion protein (500 nM, Western blot) is > 80%.
In the case of `Cc1cc(Nc2ncc(Cl)c(Nc3ccccc3S(=O)(=O)C(C)C)n2)c(OC(C)C)cc1C1CCN(C(=O)CCCCC(=O)N[C@H](C(=O)N2C[C@H](O)C[C@H]2C(=O)N[C@@H](C)c2ccc(-c3scnc3C)cc2)C(C)(C)C)CC1` [HC58-100], the “suppressing both ALK expression and ALK activity” value with ALK was “especially effective”. The “inhibition of cell viability” value in the experiment with SU-DHL-1 cells and in the experiment on NCI-H3122 cells was “significantly inhibited” each time. The “effect on ALK fusion protein levels” value at NPM-ALK fusion protein and on ALK fusion protein was “concentration-dependently reduced” in each case. Also, the Dmax at 0.5 µM at ALK fusion protein (500 nM, Western blot) was > 80%.
For the molecule `Cc1cc(Nc2ncc(Cl)c(Nc3ccccc3S(=O)(=O)C(C)C)n2)c(OC(C)C)cc1C1CCN(C(=O)COCCOCC(=O)N[C@H](C(=O)N2C[C@H](O)C[C@H]2C(=O)NCc2ccc(-c3scnc3C)cc2)C(C)(C)C)CC1` [CZ47-15, (2S,4R)-1-((S)-2-(2-(2-(2-(4-(4-((5-Chloro-4-((2-(isopropylsulfonyl)phenyl)amino)pyrimidin-2-yl)amino)-5-isopropoxy-2-methylphenyl)piperidin-1-yl)-2-oxoethoxy)ethoxy)acetamido)-3,3-dimethylbutanoyl)-4-hydroxy-N-(4-(4-methylthiazol-5-yl)benzyl)pyrrolidine-2-carboxamide], the “suppressing both ALK expression and ALK activity” value with ALK was “especially effective”. For the same molecule, the “inhibition of cell viability” value in the experiment with SU-DHL-1 cells and in the experiment with NCI-H3122 cells was “significantly inhibited” throughout. For the same molecule, the “effect on ALK fusion protein levels” value on NPM-ALK fusion protein and on ALK fusion protein was “concentration-dependently reduced” throughout. Also, the “rescue” value on NPM-ALK fusion protein is reported as “significantly rescued”. Moreover, the “significantly reduced ALK fusion protein levels (degraders vs negative controls)” value on NPM-ALK fusion protein and on ALK fusion protein (NCI-H3122 cells) was “significantly reduced” throughout. Besides, the “ALK fusion protein degradation, NCI-H3122 (500 nM)” value at ALK fusion protein (NCI-H3122 cells, 500 nM, Western blot) is reported as “++ (Protein degradation >80%)”.
Consider `Cc1cc(Nc2ncc(Cl)c(Nc3ccccc3S(=O)(=O)C(C)C)n2)c(OC(C)C)cc1C1CCN(C(=O)COCCOCC(=O)N[C@H](C(=O)N2C[C@H](O)C[C@H]2C(=O)N[C@@H](C)c2ccc(-c3scnc3C)cc2)C(C)(C)C)CC1` [HC58-98, (2S,4R)-1-((S)-2-(2-(2-(2-(4-(4-((5-Chloro-4-((2-(isopropylsulfonyl)phenyl)amino)pyrimidin-2-yl)amino)-5-isopropoxy-2-methylphenyl)piperidin-1-yl)-2-oxoethoxy)ethoxy)acetamido)-3,3-dimethylbutanoyl)-4-hydroxy-N—((S)-1-(4-(4-methylthiazol-5-yl)phenyl)ethyl)pyrrolidine-2-carboxamide], for which the “suppressing both ALK expression and ALK activity” value in the experiment with ALK is “especially effective”. The “inhibition of cell viability” value in the experiment on SU-DHL-1 cells and in the experiment on NCI-H3122 cells was “significantly inhibited” in each case. Besides, the “effect on ALK fusion protein levels” value at NPM-ALK fusion protein and on ALK fusion protein was “concentration-dependently reduced” throughout. Moreover, the Dmax at 0.5 µM at ALK fusion protein (500 nM, Western blot) was > 80%.
For the molecule `Cc1cc(Nc2ncc(Cl)c(Nc3ccccc3S(=O)(=O)C(C)C)n2)c(OC(C)C)cc1C1CCN(C(=O)CCCCC(=O)N[C@H](C(=O)N2C[C@H](O)C[C@H]2C(=O)NCc2ccc(-c3scnc3C)cc2)C(C)(C)C)CC1` [CZ47-24, (2S,4R)-1-((S)-2-(6-(4-(4-((5-Chloro-4-((2-(isopropylsulfonyl)phenyl)amino)pyrimidin-2-yl)amino)-5-isopropoxy-2-methylphenyl)piperidin-1-yl)-6-oxohexanamido)-3,3-dimethylbutanoyl)-4-hydroxy-N-(4-(4-methylthiazol-5-yl)benzyl)pyrrolidine-2-carboxamide], in the experiment with ALK, the “suppressing both ALK expression and ALK activity” value was “especially effective”. In addition, the “inhibition of cell viability” value in the experiment with SU-DHL-1 cells and with NCI-H3122 cells was “significantly inhibited” in each case. The “effect on ALK fusion protein levels” value at NPM-ALK fusion protein and at ALK fusion protein was “concentration-dependently reduced” each time. In addition, the “rescue” value on NPM-ALK fusion protein is listed as “significantly rescued”. Besides, the “significantly reduced ALK fusion protein levels (degraders vs negative controls)” value on NPM-ALK fusion protein and on ALK fusion protein (NCI-H3122 cells) was “significantly reduced” each time. Besides, the Dmax at 0.5 µM on ALK fusion protein (500 nM, Western blot) is > 80%.
